Source: patent US20240239759A1, “ISOXAZOLINE COMPOSITIONS AND THEIR USE AS ANTIPARASITICS” (Intervet Inc., priority 2007, published 2024)
Values joined by “and” are separate entries in the source; they are usually repeats but may differ in a detail not shown here. Identical values can stand only once.

Columns and labels:
[1] = Side effects in Guinea pigs, soft tick and bed bug study (Example 2C); assay type: in vivo
Experimental: (§1) Six Guinea pigs were treated orally, subcutaneously, or intraperitoneally with 10 mg/kg bodyweight of Compound 11-1 or fipronil (positive control). The Guinea pigs were locally co-infested with juvenile soft ticks (O. moubata) and bed bugs (C. lectularius) once before the treatment, and at different time points after treatment between days 2 and 50. Ten engorged ticks/bed bugs were collected to assess the percentage of killed individuals per species 24 hr after each infestation.

[2] = system: brown dog ticks, R. sanguineus (nymphs); experiment: Efficacy against hard (Ixodide) ticks on Guinea pigs (Example 2D); assay type: in vivo, Rhipicephalus sanguineus; conditions: all treated groups of Study 1 (100 ppm dip, 10 mg/kg oral, 10 mg/kg subcutaneous) and Study 2 (25 ppm dip, 2.5 mg/kg oral, 2.5 mg/kg subcutaneous), Day 4 to Day 8
Experimental: (§2) Guinea pigs were divided into groups of three. Each group was subjected to one of the following treatments with either Compound 11-1, fipronil (positive control), or neither (negative control):
(§3) • 1. 100 ppm body weight topical administration by animal dip • 2. 10 mg/kg body weight oral administration • 3. 10 mg/kg body weight subcutaneous administration • 4. No treatment (negative control)
(§4) • 1. 25 ppm body weight topical administration by animal dip • 2. 2.5 mg/kg body weight oral administration • 3. 2.5 mg/kg body weight subcutaneous administration • 4. No treatment (negative control) One day before the treatment, all the Guinea pigs were infested with 100 vital juvenile (“nymph”) hard ticks (brown dog ticks, R. sanguineus). Engorged, detached nymphs were counted (eN) from Day 4 to Day 8 to calculate the efficacy of the treatments according to following formula: […]
In addition, collected ticks were assessed for molting into the next stage.

adult fleas (C. felis) = experiment: Efficacy against fleas on mice (Example 2A); assay type: in vivo, Ctenocephalides felis
Experimental: (§5) Mice were divided into groups of three, and treated topically with 100 ppm body weight, orally with 10 mg/kg bodyweight, or subcutaneously with 10 mg/kg bodyweight of Compound 11-1, fipronil (positive control), or nothing (negative control). These mice were sedated and infested with adult fleas (C. felis) 1, 3, 6, and 24 hr after treatment. Fleas were recovered from the mice after approximately 30 minutes of feeding. The assessment of flea inhibition (% of dead and damaged fleas) was conducted 1 and 24 hr after each infestation.

[3] = system: bed bugs (C. lectularius); experiment: Efficacy against bed bugs on Guinea pigs (Example 2C); assay type: in vivo, Cimex lectularius; conditions: Guinea pig
Experimental: as §1
(§6) For Guinea pigs treated with Compound 11-1, the ticks and bed bugs died within 1 to 5 hr following infestation up to Day 29, and within 8 to 24 hr after day 29. For Guinea pigs treated with fipronil, ticks and bed bugs died within 1 to 7 hr after infestation up to Day 29, and within 8 to 24 hr after day 29.

[4] = Side effects in Guinea pigs, hard tick studies (Example 2D); assay type: in vivo; conditions: Guinea pigs; either study (topical dip, oral, subcutaneous)
Experimental: as §2, §3, §4
In the first study, 32 engorged R. sanguineus nymphs were collected from animals of the untreated negative control group. And in the second study, 75 engorged R. sanguineus nymphs were collected from animals of the untreated negative control group. […] Thus, the inhibition of engorged nymphs for both Compound 11-1 and fipronil was 100%.

[5] = system: juvenile soft ticks (O. moubata); experiment: Efficacy against soft (Argaside) ticks on Guinea pigs (Example 2C); assay type: in vivo, Ornithodoros moubata; conditions: Guinea pig
Experimental: as §1, §6

M. musculinus = experiment: Efficacy against mites on mice (Example 2B); assay type: in vivo, Myocoptes musculinus; parameters: key: “+”=low infestation rate; “++”=medium infestation rate; “+++”=high infestation rate; conditions: repeated 7 days later
Experimental: The mice were divided into groups of three, and treated topically with 100 ppm body weight, orally with 10 mg/kg body weight, or subcutaneously with 10 mg/kg body weight of Compound 11-1, fipronil (positive control), or nothing (negative control). This treatment was then repeated 7 days later. The infestation rate per mouse (“+”=low infestation rate, “++”=medium infestation rate, “+++”=high infestation rate) was assessed repeatedly on days 1, 6, 9, 13, and 23. Efficacy was defined as the inhibition of the mite infestation rate on treated mice relative to the negative control group.

[6] = system: cat fleas (Ctenocephalides felis); experiment: Adult fleas fed on artificial membranes with spiked blood (Example 1); conditions: 48 hr continuous feeding
Experimental: Adult fleas (20-30) were fed on artificial membranes with blood spiked with Compound 10-1, Compound 11-1, or a positive control (fipronil) at a concentration of 100, 10, or 1 ppm. Flea efficacy was assessed after 48 hr of continuous feeding by comparing the number of killed and damaged fleas with the number of fed fleas. Flea efficacy was 100% for Compound 10-1, Compound 11-1, and fipronil at 100, 10, and 1 ppm.

[7] = Side effects in mice, flea study (Example 2A); assay type: in vivo; conditions: topical 100 ppm, oral or subcutaneous 10 mg/kg
Experimental: as §5

Compound: Cc1cc(C2=NOC(c3cc(Cl)cc(Cl)c3)(C(F)(F)F)C2)ccc1C(=O)NCC(=O)NCC(F)(F)F (racemic) [Compound 11-1, 4-[5-(3,5-dichlorophenyl)-5-trifluoromethyl-4,5-dihydroisoxazol-3-yl]-2-methyl-N-[(2,2,2-trifluoro-ethylcarbamoyl)-methyl]-benzamide]
- Death of the orally treated Guinea pig (Animal No. 1) after Day 31 ([1]; Guinea pig, oral 10 mg/kg, without clinical symptoms): not considered to be treatment-related
- Side effects ([1]; Guinea pigs, oral, subcutaneous or intraperitoneal 10 mg/kg): No side effects were observed
- Engorged R. sanguineus nymphs collected [2]: no nymphs were collected
- Inhibition of engorged nymphs [2]: 100%
- Flea inhibition (% of dead and damaged fleas) (adult fleas (C. felis); oral 10 mg/kg, infested 1 hr after treatment, assessed 1 hr after infestation): 43.3%
- Flea inhibition (% of dead and damaged fleas) (adult fleas (C. felis); oral 10 mg/kg, infested 1 hr after treatment, assessed 24 hr after infestation): 67.7%
- Flea inhibition (% of dead and damaged fleas) (adult fleas (C. felis); oral 10 mg/kg, infested 3 hr after treatment, assessed 1 hr after infestation): 44.3%
- Flea inhibition (% of dead and damaged fleas) (adult fleas (C. felis); oral 10 mg/kg, infested 3 hr after treatment, assessed 24 hr after infestation): 48.7%
- Flea inhibition (% of dead and damaged fleas) (adult fleas (C. felis); oral 10 mg/kg, infested 6 hr after treatment, assessed 1 hr after infestation): 17.7%
- Flea inhibition (% of dead and damaged fleas) (adult fleas (C. felis); oral 10 mg/kg, infested 6 hr after treatment, assessed 24 hr after infestation): 26.7%
- Flea inhibition (% of dead and damaged fleas) (adult fleas (C. felis); oral 10 mg/kg, infested 24 hr after treatment, assessed 1 hr after infestation): 37.7%
- Flea inhibition (% of dead and damaged fleas) (adult fleas (C. felis); oral 10 mg/kg, infested 24 hr after treatment, assessed 24 hr after infestation): 82.0%
- Flea inhibition (% of dead and damaged fleas) (adult fleas (C. felis); subcutaneous 10 mg/kg, infested 1 hr after treatment, assessed 1 hr after infestation): 7.7%
- Flea inhibition (% of dead and damaged fleas) (adult fleas (C. felis); subcutaneous 10 mg/kg, infested 1 hr after treatment, assessed 24 hr after infestation): 40.0%
- Flea inhibition (% of dead and damaged fleas) (adult fleas (C. felis); subcutaneous 10 mg/kg, infested 3 hr after treatment, assessed 1 hr after infestation): 31.0%
- Flea inhibition (% of dead and damaged fleas) (adult fleas (C. felis); subcutaneous 10 mg/kg, infested 3 hr after treatment, assessed 24 hr after infestation): 42.3%
- Flea inhibition (% of dead and damaged fleas) (adult fleas (C. felis); subcutaneous 10 mg/kg, infested 6 hr after treatment, assessed 1 hr after infestation): 21.0%
- Flea inhibition (% of dead and damaged fleas) (adult fleas (C. felis); subcutaneous 10 mg/kg, infested 6 hr after treatment, assessed 24 hr after infestation): 36.7%
- Flea inhibition (% of dead and damaged fleas) (adult fleas (C. felis); subcutaneous 10 mg/kg, infested 24 hr after treatment, assessed 1 hr after infestation): 100%
- Flea inhibition (% of dead and damaged fleas) (adult fleas (C. felis); subcutaneous 10 mg/kg, infested 24 hr after treatment, assessed 24 hr after infestation): 100%
- Flea inhibition (% of dead and damaged fleas) (adult fleas (C. felis); topical 100 ppm body weight, infested 1 hr after treatment, assessed 1 hr after infestation): 0%
- Flea inhibition (% of dead and damaged fleas) (adult fleas (C. felis); topical 100 ppm body weight, infested 1 hr after treatment, assessed 24 hr after infestation): 97.7%
- Flea inhibition (% of dead and damaged fleas) (adult fleas (C. felis); topical 100 ppm body weight, infested 3 hr after treatment, assessed 1 hr after infestation): 0%
- Flea inhibition (% of dead and damaged fleas) (adult fleas (C. felis); topical 100 ppm body weight, infested 3 hr after treatment, assessed 24 hr after infestation): 99.0%
- Flea inhibition (% of dead and damaged fleas) (adult fleas (C. felis); topical 100 ppm body weight, infested 6 hr after treatment, assessed 1 hr after infestation): 0%
- Flea inhibition (% of dead and damaged fleas) (adult fleas (C. felis); topical 100 ppm body weight, infested 6 hr after treatment, assessed 24 hr after infestation): 81.0%
- Flea inhibition (% of dead and damaged fleas) (adult fleas (C. felis); topical 100 ppm body weight, infested 24 hr after treatment, assessed 1 hr after infestation): 2%
- Flea inhibition (% of dead and damaged fleas) (adult fleas (C. felis); topical 100 ppm body weight, infested 24 hr after treatment, assessed 24 hr after infestation): 93.3%
- Efficacy against bed bugs (killed 24 hr after infestation) ([3]; intraperitoneal 10 mg/kg, after Day 35): 35. No efficacy was detected after Day 35.
- Efficacy against bed bugs (killed 24 hr after infestation) ([3]; intraperitoneal 10 mg/kg, up to Day 33): 100% efficacy was observed up to Day 33.
- Efficacy against bed bugs (killed 24 hr after infestation) ([3]; oral 10 mg/kg, up to Day 31): 100% efficacy was observed up to Day 31.
- Efficacy against bed bugs (killed 24 hr after infestation) ([3]; subcutaneous 10 mg/kg, after Day 42): 42. No efficacy was detected after Day 42.
- Efficacy against bed bugs (killed 24 hr after infestation) ([3]; subcutaneous 10 mg/kg, up to Day 35): 100% efficacy was observed up to Day 35.
- Efficacy against bed bugs (killed 24 hr after infestation) ([3]; subcutaneous 10 mg/kg, up to Day 40): 90% efficacy was observed up to Day 40.
- Side effects [4]: No side effects were observed
- Efficacy against soft ticks (killed 24 hr after infestation) ([5]; intraperitoneal 10 mg/kg, after Day 31): No efficacy was detected after Day 31.
- Efficacy against soft ticks (killed 24 hr after infestation) ([5]; intraperitoneal 10 mg/kg, up to Day 31): 100% efficacy was observed up to Day 31.
- Efficacy against soft ticks (killed 24 hr after infestation) ([5]; oral 10 mg/kg, up to Day 31): 100% efficacy was observed up to Day 31.
- Efficacy against soft ticks (killed 24 hr after infestation) ([5]; subcutaneous 10 mg/kg, after Day 33): No efficacy was detected after Day 33.
- Efficacy against soft ticks (killed 24 hr after infestation) ([5]; subcutaneous 10 mg/kg, up to Day 31): 100% efficacy was observed up to Day 31.
- Efficacy against soft ticks (killed 24 hr after infestation) ([5]; subcutaneous 10 mg/kg, up to Day 33): 70% efficacy was observed up to Day 33.
- Mite infestation rate per mouse (M. musculinus; oral 10 mg/kg, Day 1): + to ++
- Mite infestation rate per mouse (M. musculinus; oral 10 mg/kg, Day 6): ++
- Mite infestation rate per mouse (M. musculinus; oral 10 mg/kg, Day 9, 10 mg/kg): 2 mice: none and 1 mouse: +
- Mite infestation rate per mouse (M. musculinus; oral 10 mg/kg, Day 13): none
- Mite infestation rate per mouse (M. musculinus; oral 10 mg/kg, Day 23): none
- Mite infestation rate per mouse (M. musculinus; subcutaneous 10 mg/kg, Day 1): + to ++
- Mite infestation rate per mouse (M. musculinus; subcutaneous 10 mg/kg, Day 6): ++
- Mite infestation rate per mouse (M. musculinus; subcutaneous 10 mg/kg, Day 9): none
- Mite infestation rate per mouse (M. musculinus; subcutaneous 10 mg/kg, Day 13): none
- Mite infestation rate per mouse (M. musculinus; subcutaneous 10 mg/kg, Day 23): none
- Mite infestation rate per mouse (M. musculinus; topical 100 ppm body weight, Day 1): +
- Mite infestation rate per mouse (M. musculinus; topical 100 ppm body weight, Day 6): 2 mice: none and 1 mouse: +
- Mite infestation rate per mouse (M. musculinus; topical 100 ppm body weight, Day 9): none
- Mite infestation rate per mouse (M. musculinus; topical 100 ppm body weight, Day 13): none
- Mite infestation rate per mouse (M. musculinus; topical 100 ppm body weight, Day 23): none
- Flea efficacy ([6]; blood spiked at 1 ppm): 100%
- Flea efficacy ([6]; blood spiked at 10 ppm): 100%
- Flea efficacy ([6]; blood spiked at 100 ppm): 100%
- Side effects [7]: No side effects were observed
